≈ marks a conversion by molar mass, not a printed value.
Columns and labels:
[1] = Inhibition of NYH Cell line; format: functional, cell-based; conditions: Homo sapiens
[2] = Half life value at pH-7.4; format: ADME
[3] = Half life value in human serum; format: ADME, cell-free
[4] = Solubility at pH-5.5; format: physicochemical
[5] = Solubility at pH-7.4; format: physicochemical

Compound	IC50 [1]	half-life [2]	half-life [3]	solubility [4]	solubility [5]
COCCOCCOC(=O)OC[n+]1ccc(N/C(=N/CCCCCCOc2ccc(Cl)cc2)NC#N)cc1.[Cl-]	0.631 nM	> 240 min	27 min	34 µg/mL	14 µg/mL
CC(C)[C@@H](N)C(=O)OC[n+]1ccc(N/C(=N/CCCCCCOc2ccc(Cl)cc2)NC#N)cc1	5.01 nM	–	–	–	–
COCCOCCOCCOC(=O)OC[n+]1ccc(N/C(=N/CCCCCCOc2ccc(Cl)cc2)NC#N)cc1.[Cl-]	0.501 nM	> 240 min	30 min	1200 µg/mL	83 µg/mL
Cl.N#CN/C(=N\CCCCCCOc1ccc(Cl)cc1)Nc1cc[n+](COC(=O)OCCCCCCCCCN)cc1.[Cl-]	0.398 nM	> 240 min	15 min	> 1200 µg/mL	38 µg/mL
Cl.N#CN/C(=N\CCCCCCOc1ccc(Cl)cc1)Nc1cc[n+](COC(=O)NCCCN)cc1.[Cl-]	15.8 nM	> 240 min	> 240 min	> 1200 µg/mL	250 µg/mL
N#CN=C(NCCCCCCOc1ccc(Cl)cc1)Nc1ccncc1 [CHS-828]	0.501 nM	–	–	2 µg/mL (≈ 5.38 µM)	0.5 µg/mL (≈ 1.34 µM)
COCCOCCOCCOCCOC(=O)OC[n+]1ccc(N/C(=N/C#N)NCCCCCCOc2ccc(Cl)cc2)cc1.[Cl-] [TEGLARINAD CHLORIDE]	0.794 nM	> 240 min	25 min	> 1200 µg/mL	120 µg/mL
